We go through nine molecules from article PMC8286815 (Biochemical Journal, 2021).

The structures appear in SMILES notation. Where two headings read alike, the source gives them in different places. Where only a bound is given, the exact number is not on record here.

The target of series [1] is T1, SARS-CoV-2 RdRp (nsp12/nsp7/nsp8) (Severe acute respiratory syndrome coronavirus 2, UniProt P0DTD1).
T1 construct: added initiator Met before nsp12 (N); made in house; host or cells: Sf9 insect cells (Spodoptera frugiperda), baculovirus
Kind of series: FRET-based strand displacement assay (RdRp activity). The class given is biochemical. Conditions: 100 nM RNA substrate, 300 µM of each NTP.

Series [2] concerns SARS-CoV-2 in Vero E6 cells. The series is described as follows: Viral inhibition assay (N protein immunofluorescence). Conditions: for EC50: read-out: EC50 antiviral activity against SARS-CoV-2. The class given is cell-based.
The test system of series [3] is influenza A viruses in A549 cells. Further details: method as in PMID 26711748. Conditions: different strains, read-out: EC50 suppression of replication of influenza A viruses; cited from earlier work.
Series [4] has as its system influenza infection. Conditions: treated mice; cited from earlier work.
Series [5] concerns the target T1, SARS-CoV-2 RdRp (nsp12/nsp7/nsp8). Kind of series: Gel-based polymerisation (primer-extension) assay. The class given is biochemical. Conditions: compound at 50 µM, 30-min reaction, 300 nM RdRp, native PAGE.
Series [6] deals with Vero E6 cells. Kind of series: Cell viability in the viral inhibition assay (DRAQ7 staining). Conditions: DRAQ7 area, concentrations tested up to 300 µM.
Series [7] deals with SARS-CoV-2 in Vero E6 cells. The arrangement: method as in Zeng et al. [46]. Conditions: same protocol, ref Zeng et al. [46], read-out: EC50 against SARS-CoV-2; cited from earlier work.
[8] abbreviates: Severe acute respiratory syndrome coronavirus 2, Vero C1008, 22 h.
The mark [9] stands for this setting: IC50 (µM) + 0.01% Triton X-100, 150 nM RdRp, presence of 0.01% Triton X-100.
[10] abbreviates: IC50 (µM) No detergent, 150 nM RdRp, absence of Triton X-100.
Where [11] appears, read: Severe acute respiratory syndrome coronavirus 2, Vero C1008, Vero E6 cells, MOI 0.5 PFU/cell, 22 h, area of viral plaques by N protein staining.

For `OC[C@@H](O)[C@H]1NC[C@@H](O)[C@H]1O` [1,4-Dideoxy-1,4-imino-D-mannitol], the “IC50 (µM) No detergent” value in series [1] (150 nM RdRp, absence of Triton X-100) is “no cl ear i nhi bi ti”. In addition, the “IC50 (µM) + 0.01% Triton X-100” value in series [1] (150 nM RdRp, presence of 0.01% Triton X-100) is on record as “no cl ear i nhi bi ti”.

In general, EC50 refers to the concentration at which the effect is half-maximal. In the case of `O=C1C(=O)N(Cc2ccc(Cl)c(Cl)c2)c2ccccc21` [MDK-83190], the EC50 in series [2] (setting [8]) is 81 µM.

In general, IC50 refers to the concentration that gives 50% inhibition. As for `CC1=NN(c2ccc(C(=O)O)cc2)C(=O)C1=Cc1ccc(-c2cc(C)c(C)cc2[N+](=O)[O-])o1` [C646], the EC50 in series [3] was 16 µM; in series [2] (setting [11]), 19 µM. For the same molecule, the “Toxicity in murine models of influenza infection” value in series [4] was “no associated toxicity”. Besides, the “Viral replication in murine models of influenza infection” value in series [4] is given as “significant reduction in viral replication”. For the same molecule, the “Inhibition of RNA duplex formation” value in series [5] was “inhibited RNA duplex formation almost completely”. Further, the IC50 in series [1] (setting [9]) came out at 7.8 µM; in series [1] (setting [10]), 6.1 µM.

Turning to `Nc1c(C(=O)O)c2nc3c(C(=O)O)cccc3oc-2cc1=O` [Cinnabarinic Acid], the concentration for half-maximal inhibition (IC50) in series [1] (setting [9]) and in series [1] (setting [10]) was above 100 µM throughout.

Turning to `O=C(O)c1ccc(-c2c[nH]c3ncc(-c4ccccc4)cc23)cc1C1CCCC1` [GSK-650394], the “Concentration at which cytotoxicity was seen” value in series [6] amounted to 300 µM. Also, in series [5], the “Inhibition of RNA duplex formation” value is reported as “partial inhibition”. Also, the IC50 in series [1] (setting [9]) came to 29 µM; in series [1] (setting [10]), 31 µM. The 50% effective concentration (EC50) in series [2] (setting [8]) was 7.6 µM.

Take `Cc1ccc(C(=O)Nc2ccc(S(=O)(=O)O)c3cc(S(=O)(=O)O)cc(S(=O)(=O)O)c23)cc1NC(=O)c1cccc(NC(=O)Nc2cccc(C(=O)Nc3cc(C(=O)Nc4ccc(S(=O)(=O)O)c5cc(S(=O)(=O)O)cc(S(=O)(=O)O)c45)ccc3C)c2)c1` [Suramin]: in series [7], the EC50 was 9.9 µM. Also, the “Inhibition of RNA duplex formation” value in series [5] was “inhibited RNA duplex formation almost completely”. Also, the IC50 was 0.78 µM in series [1] (setting [9]) and 0.43 µM in series [1] (setting [10]).

For the molecule `CC(C)C(C(=O)O)N1C(=O)/C(=C/c2ccc(Br)cc2)SC1=S` (stereo not shown) [BH3I-1], the “Inhibition of RNA duplex formation” value in series [5] was “inhibited RNA duplex formation almost completely”. Further, the IC50 in series [1] (setting [9]) is 13 µM; in series [1] (setting [10]), 14 µM. Also, the EC50 in series [2] (setting [11]) worked out at 77 µM.

`NC(=O)c1cc[n+](CC2=C(C(=O)O)N3C(=O)[C@@H](NC(=O)[C@@H](c4ccccc4)S(=O)(=O)[O-])[C@H]3SC2)cc1` [Cefsulodin]: in series [5], the “Inhibition of RNA duplex formation” value is on record as “partial inhibition”. Also, the half-maximal inhibitory concentration (IC50) in series [1] (setting [9]) came out at 49 µM; in series [1] (setting [10]), 50 µM. Besides, the EC50 in series [2] (setting [8]) was determined as 108 µM.

In general, inhibition refers to the drop in the measured response relative to a control, in per cent. As for `CCC(CC)COC(=O)[C@H](C)N[P@](=O)(OC[C@H]1O[C@@](C#N)(c2ccc3c(N)ncnn23)[C@H](O)[C@@H]1O)Oc1ccccc1` [Remdesivir], in series [2] (Severe acute respiratory syndrome coronavirus 2, Vero C1008, 0.5 µM, Vero E6 cells, read-out: Inhibition of viral infection as a single agent), the inhibition at 0.5 µM is below 10%. In addition, the concentration for a half-maximal effect (EC50) in series [2] (setting [11]) is 1.8 µM.
